From ChEMBL document CHEMBL1147171, “Synthesis and antiplasmodial activity of new N-[3-(4-{3-[(7-chloroquinolin-4-yl)amino]propyl}piperazin-1-yl)propyl]carboxamides” (Bioorg Med Chem, 2007)

How the values were obtained:
Plasmodium falciparum [1] = assay: Antiparasitic activity against chloroquine-sensitive Plasmodium falciparum NF54 in erythrocytes by [3H]hypoxanthine uptake; type: functional, organism-based
Plasmodium falciparum [2] = assay: Antiparasitic activity against chloroquine, pyrimethamine-resistant Plasmodium falciparum K1 in erythrocytes by [3H]hypoxanthine uptake; type: functional, organism-based
Plasmodium falciparum [3] = assay: Relative activity against Plasmodium falciparum NF54 and K1 as IC50 ratio; type: functional
L6 = assay: Cytotoxicity against L6 cells; type: cell-based; conditions: Rattus norvegicus

SMILES: CCc1ccc(C(=O)NCCCN2CCN(CCCNc3ccnc4cc(Cl)ccc34)CC2)cc1
- IC50 (Plasmodium falciparum [1]): 8 nM
- IC50 (Plasmodium falciparum [2]): 13 nM
- Ratio IC50 (Plasmodium falciparum [3]): 0.62
- IC50 (L6): 3900 nM

SMILES: O=C(Cc1ccc(Cl)cc1Cl)NCCCN1CCN(CCCNc2ccnc3cc(Cl)ccc23)CC1
- IC50 (Plasmodium falciparum [1]): 8 nM
- IC50 (Plasmodium falciparum [2]): 24 nM
- Ratio IC50 (Plasmodium falciparum [3]): 0.34
- IC50 (L6): 15100 nM

SMILES: O=C(Cc1c(Cl)cccc1Cl)NCCCN1CCN(CCCNc2ccnc3cc(Cl)ccc23)CC1
- IC50 (Plasmodium falciparum [1]): 11 nM
- IC50 (Plasmodium falciparum [2]): 36 nM
- Ratio IC50 (Plasmodium falciparum [3]): 0.32
- IC50 (L6): 5300 nM

SMILES: O=C(Cc1cccc2ccccc12)NCCCN1CCN(CCCNc2ccnc3cc(Cl)ccc23)CC1
- IC50 (Plasmodium falciparum [1]): 13 nM
- IC50 (Plasmodium falciparum [2]): 41 nM
- Ratio IC50 (Plasmodium falciparum [3]): 0.32
- IC50 (L6): 6200 nM

SMILES: O=C(NCCCN1CCN(CCCNc2ccnc3cc(Cl)ccc23)CC1)c1cccc(C(F)(F)F)c1
- IC50 (Plasmodium falciparum [1]): 37 nM
- IC50 (Plasmodium falciparum [2]): 53 nM
- Ratio IC50 (Plasmodium falciparum [3]): 0.68
- IC50 (L6): 30100 nM

SMILES: O=C(CC1CCCCC1)NCCCN1CCN(CCCNc2ccnc3cc(Cl)ccc23)CC1
- IC50 (Plasmodium falciparum [1]): 10 nM
- IC50 (Plasmodium falciparum [2]): 27 nM
- Ratio IC50 (Plasmodium falciparum [3]): 0.37
- IC50 (L6): 7200 nM

SMILES: COc1cccc(C(=O)NCCCN2CCN(CCCNc3ccnc4cc(Cl)ccc34)CC2)c1
- IC50 (Plasmodium falciparum [1]): 10 nM
- IC50 (Plasmodium falciparum [2]): 28 nM
- Ratio IC50 (Plasmodium falciparum [3]): 0.36
- IC50 (L6): 9300 nM

SMILES: NC(=O)c1ccc(C(=O)NCCCN2CCN(CCCNc3ccnc4cc(Cl)ccc34)CC2)cc1
- IC50 (Plasmodium falciparum [1]): 83 nM
- IC50 (Plasmodium falciparum [2]): 249 nM
- Ratio IC50 (Plasmodium falciparum [3]): 0.33

SMILES: O=C(NCCCN1CCN(CCCNc2ccnc3cc(Cl)ccc23)CC1)c1ccc(Oc2ccccc2)cc1
- IC50 (Plasmodium falciparum [1]): 9 nM
- IC50 (Plasmodium falciparum [2]): 15 nM
- Ratio IC50 (Plasmodium falciparum [3]): 0.6
- IC50 (L6): 1400 nM

SMILES: O=C(NCCCN1CCN(CCCNc2ccnc3cc(Cl)ccc23)CC1)c1cccc(OC(F)(F)F)c1
- IC50 (Plasmodium falciparum [1]): 12 nM
- IC50 (Plasmodium falciparum [2]): 15 nM
- Ratio IC50 (Plasmodium falciparum [3]): 0.8
- IC50 (L6): 8500 nM

SMILES: O=C(CCCOc1ccccc1)NCCCN1CCN(CCCNc2ccnc3cc(Cl)ccc23)CC1
- IC50 (Plasmodium falciparum [1]): 12 nM
- IC50 (Plasmodium falciparum [2]): 73 nM
- Ratio IC50 (Plasmodium falciparum [3]): 0.16
- IC50 (L6): 9300 nM

SMILES: O=C(NCCCN1CCN(CCCNc2ccnc3cc(Cl)ccc23)CC1)c1ccccc1C(=O)c1ccccc1
- IC50 (Plasmodium falciparum [1]): 10 nM
- IC50 (Plasmodium falciparum [2]): 17 nM
- Ratio IC50 (Plasmodium falciparum [3]): 0.59
- IC50 (L6): 3200 nM

SMILES: O=C(NCCCN1CCN(CCCNc2ccnc3cc(Cl)ccc23)CC1)c1ccc(Cl)c([N+](=O)[O-])c1
- IC50 (Plasmodium falciparum [1]): 20 nM
- IC50 (Plasmodium falciparum [2]): 43 nM
- Ratio IC50 (Plasmodium falciparum [3]): 0.47
- IC50 (L6): 11300 nM

SMILES: CC(=O)CCC(=O)NCCCN1CCN(CCCNc2ccnc3cc(Cl)ccc23)CC1
- IC50 (Plasmodium falciparum [1]): 59 nM
- IC50 (Plasmodium falciparum [2]): 380 nM
- Ratio IC50 (Plasmodium falciparum [3]): 0.15
- IC50 (L6): 11000 nM

SMILES: O=C(CCCc1ccccc1)NCCCN1CCN(CCCNc2ccnc3cc(Cl)ccc23)CC1
- IC50 (Plasmodium falciparum [1]): 17 nM
- IC50 (Plasmodium falciparum [2]): 61 nM
- Ratio IC50 (Plasmodium falciparum [3]): 0.28
- IC50 (L6): 11000 nM

SMILES: O=C(CCCc1c[nH]c2ccccc12)NCCCN1CCN(CCCNc2ccnc3cc(Cl)ccc23)CC1
- IC50 (Plasmodium falciparum [1]): 15 nM
- IC50 (Plasmodium falciparum [2]): 69 nM
- Ratio IC50 (Plasmodium falciparum [3]): 0.22
- IC50 (L6): 6500 nM

SMILES: O=C(NCCCN1CCN(CCCNc2ccnc3cc(Cl)ccc23)CC1)c1ccc(F)c(F)c1
- IC50 (Plasmodium falciparum [1]): 7 nM
- IC50 (Plasmodium falciparum [2]): 13 nM
- Ratio IC50 (Plasmodium falciparum [3]): 0.54
- IC50 (L6): 10000 nM

SMILES: O=C(CCCCc1ccccc1)NCCCN1CCN(CCCNc2ccnc3cc(Cl)ccc23)CC1
- IC50 (Plasmodium falciparum [1]): 12 nM
- IC50 (Plasmodium falciparum [2]): 54 nM
- Ratio IC50 (Plasmodium falciparum [3]): 0.22
- IC50 (L6): 9400 nM

SMILES: CCOc1ccc(C(=O)NCCCN2CCN(CCCNc3ccnc4cc(Cl)ccc34)CC2)cc1
- IC50 (Plasmodium falciparum [1]): 8 nM
- IC50 (Plasmodium falciparum [2]): 12 nM
- Ratio IC50 (Plasmodium falciparum [3]): 0.67
- IC50 (L6): 5300 nM

SMILES: CC(C)CC(=O)NCCCN1CCN(CCCNc2ccnc3cc(Cl)ccc23)CC1
- IC50 (Plasmodium falciparum [1]): 13 nM
- IC50 (Plasmodium falciparum [2]): 78 nM
- Ratio IC50 (Plasmodium falciparum [3]): 0.17

SMILES: CCCCCC(=O)NCCCN1CCN(CCCNc2ccnc3cc(Cl)ccc23)CC1
- IC50 (Plasmodium falciparum [1]): 338 nM
- IC50 (Plasmodium falciparum [2]): 900 nM
- Ratio IC50 (Plasmodium falciparum [3]): 0.38

SMILES: O=C(NCCCN1CCN(CCCNc2ccnc3cc(Cl)ccc23)CC1)C(c1ccccc1)c1ccccc1
- IC50 (Plasmodium falciparum [1]): 25 nM
- IC50 (Plasmodium falciparum [2]): 106 nM
- Ratio IC50 (Plasmodium falciparum [3]): 0.24
- IC50 (L6): 9300 nM

SMILES: CCN(CC)CCCC(C)Nc1ccnc2cc(Cl)ccc12 (stereo not given) [CHLOROQUINE]
- IC50 (L6): 7700 nM

SMILES: CC(C)=CC(=O)NCCCN1CCN(CCCNc2ccnc3cc(Cl)ccc23)CC1
- IC50 (Plasmodium falciparum [1]): 23 nM
- IC50 (Plasmodium falciparum [2]): 65 nM
- Ratio IC50 (Plasmodium falciparum [3]): 0.36
- IC50 (L6): 30000 nM

SMILES: O=C(NCCCN1CCN(CCCNc2ccnc3cc(Cl)ccc23)CC1)c1cc(Cl)cc(Cl)c1
- IC50 (Plasmodium falciparum [1]): 7 nM
- IC50 (Plasmodium falciparum [2]): 12 nM
- Ratio IC50 (Plasmodium falciparum [3]): 0.58
- IC50 (L6): 3000 nM

SMILES: O=C(CCCC1CCCCC1)NCCCN1CCN(CCCNc2ccnc3cc(Cl)ccc23)CC1
- IC50 (Plasmodium falciparum [1]): 156 nM
- IC50 (Plasmodium falciparum [2]): 272 nM
- Ratio IC50 (Plasmodium falciparum [3]): 0.57

SMILES: O=C(NCCCN1CCN(CCCNc2ccnc3cc(Cl)ccc23)CC1)c1cc(F)cc(F)c1
- IC50 (Plasmodium falciparum [1]): 10 nM
- IC50 (Plasmodium falciparum [2]): 26 nM
- Ratio IC50 (Plasmodium falciparum [3]): 0.39
- IC50 (L6): 11600 nM

SMILES: Cc1ccccc1C(=O)NCCCN1CCN(CCCNc2ccnc3cc(Cl)ccc23)CC1
- IC50 (Plasmodium falciparum [1]): 10 nM
- IC50 (Plasmodium falciparum [2]): 34 nM
- Ratio IC50 (Plasmodium falciparum [3]): 0.29

SMILES: O=C(NCCCN1CCN(CCCNc2ccnc3cc(Cl)ccc23)CC1)c1ccc(C(=O)c2ccccc2)cc1
- IC50 (Plasmodium falciparum [1]): 1540 nM
- IC50 (Plasmodium falciparum [2]): 3070 nM
- Ratio IC50 (Plasmodium falciparum [3]): 0.5

SMILES: COc1ccc(C(=O)NCCCN2CCN(CCCNc3ccnc4cc(Cl)ccc34)CC2)cc1OC
- IC50 (Plasmodium falciparum [1]): 36 nM
- IC50 (Plasmodium falciparum [2]): 447 nM
- Ratio IC50 (Plasmodium falciparum [3]): 0.08
